# Measured values: article PMC3834177 (Cancer Chemotherapy and Pharmacology, 2013)
# Values joined by “and” are separate entries in the source; they are usually repeats but may differ in a detail not shown here. Equal values may be shown once. “Also recorded” adds a separate entry of the source.
# What was measured:
# [1] = Midostaurin PK when administered with ketoconazole; settings: for AUC(0-inf): AUC0–inf; for AUC(0-inf) / Cmax: adjusted geometric mean; for Cmax: C max; for half-life: t 1/2, adjusted geometric mean
# Experimental: According to the US Food and Drug Administration, ketoconazole 400 mg once daily is the recommended dose to evaluate DDIs involving CYP3A4 inhibition. [drawing 1]
# (§1) Adverse events (AEs) were recorded during the study and up to 1 month (28 days) after the end of study. Volunteers remained at the clinic until AEs were common toxicity criteria (CTC) grade ≤1.
# A point estimate and the corresponding 90 % CI for the treatment effect were calculated for the test treatment compared with the reference. These were anti-logged to obtain the point estimate and the 90 % CI for the geometric mean ratio (GMR) on the untransformed scale. […] All ANOVAs were performed using SAS software (SAS Institute Inc., Cary, NC, USA).
# (§2) The concentration of ketoconazole in plasma was assessed using a validated LC–MS/MS assay with an LLOQ of 50.0 ng/mL (WuXi Pharmatech Co, Ltd, China). The concentration of rifampicin in plasma was measured using a validated LC–MS/MS assay with an LLOQ of 5.0 ng/mL (SGS, Cephac Europe, SAS). Plasma concentrations of midazolam and its metabolite 1′-hydroxymidazolam, which is generated by CYP3A4 and CYP3A5 in humans, were measured using a validated LC–MS/MS assay with an LLOQ of ≈0.100 ng/mL (SGS, Cephac Europe, SAS). The plasma concentration of 4β-hydroxycholesterol was measured using a validated LC–MS/MS assay with an LLOQ of 3.0 ng/mL (SGS, Cephac Europe, SAS). The concentrations of 6β-hydroxycortisol and cortisol in urine were determined using validated LC–MS/MS assays with an LLOQ of 10.0 ng/mL for 6β-hydroxycortisol and 1.0 ng/mL for cortisol. The ratio of 6β-hydroxycortisol to cortisol was subsequently calculated (SGS, Cephac Europe, SAS). See Supplementary Table 2 for detailed bioanalytical methods for all 3 studies.
# [2] = Midostaurin PK when administered with rifampicin; settings: for AUC(0-inf) / AUC(0-t) / Cmax / half-life: human, oral; for AUC(0-inf): AUC0–inf; for AUC(0-inf) / AUC(0-t) / Cmax: adjusted geometric mean; for AUC(0-t): AUC0–last; for Cmax: C max; for half-life: t 1/2, adjusted geometric mean
# Experimental: These endogenous molecules served as exploratory biomarkers for CYP3A4 activity in vivo [21, 22].
# A point estimate and the corresponding 90 % CI for the treatment effect (test vs reference) were calculated. These were anti-logged to obtain the GMR and respective 90 % CI. […] The median difference was estimated with the Hodges–Lehmann estimator and its respective exact two-sided 90 % CI. All formal comparative statistical analyses were performed using SAS software.
# as §2
# CYP3A4 [3] = experiment: CYP3A4 activity in vivo in midazolam study (probe and endogenous biomarkers); parameters: species or system human
# Experimental: Both inhibition and induction of midazolam clearance were investigated.
# Similarly, blood and urine samples were taken on days 1, 3, 6, 7, 8, and 9 to measure the levels of 4β-hydroxycholesterol in plasma and the 6β-hydroxycortisol/cortisol ratio in urine, markers of CYP3A4 activity.
# as §2
# [4] = Safety and tolerability, ketoconazole study; format: in vivo, human
# Experimental: as §1
# [5] = tested on: human serum protein α1-acid glycoprotein (AAG); parameters: method as in PMID 11230495; settings: cited from earlier work
# patients with ASM = settings: cited from earlier work
# CYP3A4 [6] = settings: patients with ASM, 1–2 months of daily midostaurin dosing; cited from earlier work
# [7] = cited from earlier work
# [8] = Safety and tolerability, rifampicin study
# [9] = human, plasma, oral, plasma, Ketoconazole + midostaurin arm, n = 18
# [10] = human, plasma, oral, plasma, Placebo + midostaurin arm, ketoconazole study, n = 18
# [11] = midostaurin 50 mg single dose, ketoconazole 400 mg daily
# [12] = plasma, plasma, Placebo + midostaurin arm, rifampicin study, n = 20
# [13] = plasma, plasma, Rifampicin + midostaurin arm, n = 20
# [14] = ketoconazole study, both arms pooled (N = 47)
# [15] = ketoconazole study: Mido 50 mg (n = 20) or Mido 50 mg + Keto 400 mg (n = 27)
# [16] = phase II, 100 mg twice daily, 26 patients with ASM
# [17] = stage 1 analysis, global phase II study, ASM or mast cell leukemia
# [18] = rifampicin study: Mido 50 mg + Rifa 600 mg (n = 25) or Mido 50 mg (n = 21)
smiles,measurement,setting,value
CO[C@@H]1[C@H](N(C)C(=O)c2ccccc2)C[C@H]2O[C@]1(C)n1c3ccccc3c3c4c(c5c6ccccc6n2c5c31)C(=O)NC4 [Midostaurin],fraction of midostaurin metabolized by CYP3A4 (FmCYP3A4),[1]; 1 − AUCinf (without ketoconazole)/AUCinf (with ketoconazole),91%
same,DDI classification (PhRMA proposal for drugs biotransformed via CYP3A4),[1]; co-administration with ketoconazole,strong
same,elimination t 1/2 in the presence of ketoconazole,[1]; compared with placebo,prolonged
same,AUC(0-inf),"[1]; human, plasma, oral, plasma, Ketoconazole + midostaurin arm (midostaurin 50 mg once, ketoconazole 400 mg daily), n = 18",206 µg·h/mL
same,AUC(0-inf),"[1]; human, plasma, oral, plasma, Placebo + midostaurin arm (midostaurin 50 mg once), ketoconazole study, n = 18",19.8 µg·h/mL
same,Cmax,[1]; [9],2890 ng/mL
same,Cmax,[1]; [10],1590 ng/mL
same,half-life,[1]; [9],3.78 days
same,half-life,[1]; [10],0.972 days
same,Tmax,"[1]; human, plasma, oral, t max, median, plasma, Ketoconazole + midostaurin arm, n = 18",1.5 h
same,"t max, Hodges–Lehmann estimate of median difference (90 % distribution-free CI)",[1]; ketoconazole + midostaurin vs placebo + midostaurin,"0.5 (0, 0.5) h"
same,increase in AUC (exposure) with ketoconazole compared with placebo,[1]; [11],more than tenfold; also recorded: tenfold
same,increase in C max with ketoconazole compared with placebo,[1]; [11],≈ 1.8 fold and 1.8 fold
same,increase in geometric mean of apparent clearance with rifampicin,[2]; compared with midostaurin administered alone,16.9 fold
same,AUC(0-inf),"[2]; plasma, plasma, Placebo + midostaurin arm (midostaurin 50 mg once), rifampicin study, n = 20",22800 ng·h/mL
same,AUC(0-inf),"[2]; plasma, plasma, Rifampicin + midostaurin arm (midostaurin 50 mg once, rifampicin 600 mg daily), n = 20",1350 ng·h/mL
same,AUC(0-t),[2]; [12],22000 ng·h/mL
same,AUC(0-t),[2]; [13],1230 ng·h/mL
same,Cmax,[2]; [12],1620 ng/mL
same,Cmax,[2]; [13],440 ng/mL
same,half-life,[2]; [12],1380 min
same,half-life,[2]; [13],308 min
same,decrease in exposure by induction of CYP3A4 by rifampicin,"[2]; midostaurin 50 mg single dose, rifampicin 600 mg daily",more than tenfold
same,"t max, median","[2]; plasma, Placebo + midostaurin arm, rifampicin study, n = 20",1.02 h
same,inhibition or induction of CYP3A4 in vivo,"CYP3A4 [3]; humans, single dose 100 mg and 50 mg twice daily",neither an inhibitor nor inducer; also recorded: neither a CYP3A4 inhibitor nor a CYP3A4 inducer
same,effect on concentrations of midazolam and 1′-hydroxymidazolam,CYP3A4 [3]; single or multiple doses of midostaurin,did not appreciably affect
same,tolerability,"[4]; all 3 studies, single agent or in combination, healthy volunteers",generally well tolerated
same,intensity of AEs,"[4]; ketoconazole study, both arms pooled",mild
same,participants who discontinued the study because of AEs,[4]; [14],15%
same,serious AEs,[4]; [14],no serious AEs
same,Adverse event: Abdominal distension,[4]; [15],0 n (%)
same,Adverse event: Any preferred term,[4]; [15],13 (65.0) n (%)
same,Adverse event: Back pain,[4]; [15],0 n (%)
same,Adverse event: Chromaturia,[4]; [15],0 n (%)
same,Adverse event: Cough,[4]; [15],0 n (%)
same,Adverse event: Diarrhea,[4]; [15],4 (20.0) n (%)
same,Adverse event: Discolored feces,[4]; [15],0 n (%)
same,Adverse event: Dizziness,[4]; [15],5 (25.0) n (%)
same,Adverse event: Dry skin,[4]; [15],0 n (%)
same,Adverse event: Dyspepsia,[4]; [15],0 n (%)
same,Adverse event: Feeling cold,[4]; [15],2 (10.0) n (%)
same,Adverse event: Feeling hot,[4]; [15],0 n (%)
same,Adverse event: Flatulence,[4]; [15],0 n (%)
same,Adverse event: Headache,[4]; [15],2 (10.0) n (%)
same,Adverse event: Hot flush,[4]; [15],0 n (%)
same,Adverse event: Nasopharyngitis,[4]; [15],0 n (%)
same,Adverse event: Nausea,[4]; [15],7 (35.0) n (%)
same,Adverse event: Palpitations,[4]; [15],0 n (%)
same,Adverse event: Pharyngolaryngeal pain,[4]; [15],0 n (%)
same,Adverse event: Restlessness,[4]; [15],0 n (%)
same,Adverse event: Rhinitis,[4]; [15],1 (5.0) n (%)
same,Adverse event: Sleep disorder,[4]; [15],0 n (%)
same,Adverse event: Somnolence,[4]; [15],0 n (%)
same,Adverse event: Vomiting,[4]; [15],1 (5.0) n (%)
same,bound to AAG,[5],88–98%
same,response rate according to Valent criteria,"patients with ASM; phase II investigator-initiated study, 100 mg twice daily, 26 patients with ASM",69%
same,good partial responses (number of patients),patients with ASM; [16],5
same,incomplete remissions (number of patients),patients with ASM; [16],6
same,major responses (number of patients),patients with ASM; [16],10
same,minor partial responses (number of patients),patients with ASM; [16],3
same,pure clinical responses (number of patients),patients with ASM; [16],4
same,major response,patients with ASM; [17],53%
same,overall response rate,patients with ASM; [17],60%
same,change in level of endogenous CYP3A4 biomarker 4-β-hydroxycholesterol in plasma,CYP3A4 [6],significant increase
same,free midostaurin concentrations,[7],0.02 to 1 µM
same,major pathway for elimination,[7],Fecal excretion
same,period of time-linear accumulation,[7]; daily oral dosing,3 to 6 days
same,time to new plateau of plasma concentrations,[7]; daily oral dosing,2–3 weeks
same,mean apparent volume of distribution,[7]; healthy volunteers,111 L
same,time of peak plasma concentrations postdose,"[7]; human, in vivo, po",1 to 3 h
same,dose proportionality of C max and AUC,[7]; single-dose administration,increased proportionally with dose following single-dose administration of midostaurin between 25- and 50-mg doses but under proportionally between 50- and 100-mg doses
same,diarrhea,"[8]; rifampicin study, by arm",33%
same,nausea,"[8]; rifampicin study, by arm",38%
same,participants who experienced an AE,"[8]; rifampicin study, by arm",62%
same,Adverse event: Abdominal distension,[8]; [18],0 n (%)
same,Adverse event: Any preferred term,[8]; [18],13 (61.9) n (%)
same,Adverse event: Back pain,[8]; [18],1 (4.8) n (%)
same,Adverse event: Chromaturia,[8]; [18],0 n (%)
same,Adverse event: Cough,[8]; [18],0 n (%)
same,Adverse event: Diarrhea,[8]; [18],7 (33.3) n (%)
same,Adverse event: Discolored feces,[8]; [18],0 n (%)
same,Adverse event: Dizziness,[8]; [18],0 n (%)
same,Adverse event: Dry skin,[8]; [18],0 n (%)
same,Adverse event: Dyspepsia,[8]; [18],0 n (%)
same,Adverse event: Feeling cold,[8]; [18],0 n (%)
same,Adverse event: Feeling hot,[8]; [18],0 n (%)
same,Adverse event: Flatulence,[8]; [18],1 (4.8) n (%)
same,Adverse event: Headache,[8]; [18],1 (4.8) n (%)
same,Adverse event: Hot flush,[8]; [18],0 n (%)
same,Adverse event: Nasopharyngitis,[8]; [18],2 (9.5) n (%)
same,Adverse event: Nausea,[8]; [18],8 (38.1) n (%)
same,Adverse event: Palpitations,[8]; [18],0 n (%)
same,Adverse event: Pharyngolaryngeal pain,[8]; [18],0 n (%)
same,Adverse event: Restlessness,[8]; [18],0 n (%)
same,Adverse event: Rhinitis,[8]; [18],0 n (%)
same,Adverse event: Sleep disorder,[8]; [18],0 n (%)
same,Adverse event: Somnolence,[8]; [18],0 n (%)
same,Adverse event: Vomiting,[8]; [18],1 (4.8) n (%)
